For data set [1] the following is noted: for Relative Peak Area: 37° C.
For data set [2] the following is noted: cited from earlier work.
The nature of data set [3]: Loading (uptake) of drugs into Pluronic-PAA microgels. Conditions: 1 wt % microgel suspension pH 7.0. The data set is classed as physicochemical. Here is the method:
The beads were used in order to enhance the area of contact between the microgel suspension and drug. The beads were separated into several fractions. One fraction was added to a polypropylene vial containing the microgel suspension (0.5 mL) and the vial was gently shaken in a horizontal position in an environmental chamber at 20 or 37° C. Then the beads were recovered from the suspension by using a magnet. The beads were dried under vacuum and placed into an appropriate solvent (0.5 mL), where the solute was extracted after shaking overnight. The solvent fraction was assayed for the solute concentration using HPLC. The control fraction of loaded beads was subjected to the extraction without equilibration with the microgel suspension. The solute concentrations were measured in triplicate using the HPLC system described above. […] The peak area was integrated and used to calculate camptothecin concentration using standard calibration curves.

Data set [4] deals with human serum albumin (HSA) (Homo sapiens, UniProt P02768). The note with it: pH 7.4; cited from earlier work.
Sequence of human serum albumin (HSA) (P02768 25-609): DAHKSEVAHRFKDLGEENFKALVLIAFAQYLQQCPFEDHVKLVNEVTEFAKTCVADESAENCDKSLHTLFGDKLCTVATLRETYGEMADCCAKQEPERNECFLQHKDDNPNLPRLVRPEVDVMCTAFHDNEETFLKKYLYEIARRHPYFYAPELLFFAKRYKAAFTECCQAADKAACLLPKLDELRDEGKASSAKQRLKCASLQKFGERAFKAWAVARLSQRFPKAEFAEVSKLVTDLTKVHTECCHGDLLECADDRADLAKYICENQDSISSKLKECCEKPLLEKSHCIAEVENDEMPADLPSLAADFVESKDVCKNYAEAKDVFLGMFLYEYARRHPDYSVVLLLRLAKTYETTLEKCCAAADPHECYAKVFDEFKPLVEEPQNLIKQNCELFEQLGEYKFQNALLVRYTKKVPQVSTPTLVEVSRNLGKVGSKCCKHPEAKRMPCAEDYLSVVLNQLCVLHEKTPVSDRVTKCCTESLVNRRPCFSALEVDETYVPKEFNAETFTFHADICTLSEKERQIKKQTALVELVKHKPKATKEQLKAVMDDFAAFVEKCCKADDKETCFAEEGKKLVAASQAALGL
The nature of data set [5]: Solubility of camptothecin in formulations with Pluronic P85. The format is physicochemical. Conditions: aqueous with cosolvent or surfactant or cyclodextrin, thermodynamic from solid, read-out: Camptothecin concentration (solubility). The method, then:
Calibration. Fluorescence of 0.300 mL samples of camptothecin solutions in methanol containing between 0.00003 and 0.0005 mg/mL, in triplicates on Helma Quarz plate, was measured using Bio-Tek FL600 fluorescence plate reader with excitation filter wavelength/bandwidth 360/40 nm and emission filter 530/25 nm, sensitivity 70. The average fluorescence was fitted to a linear equation and gave: […]
where C—camptothecin concentration [mg/mL].
Solubility. 0.1 mg camptothecin samples, in triplicates, and 1 mL of the respective buffer or carrier solution, were incubated at room temperature with shaking for 1 hour. The samples were then filtered through Acrodisc CR, PTFE Syringe filter, 4 mm diameter, 0.45 μm pore size Gelman part No. 4472. The filtrate was diluted 100 times with methanol, and the final concentration of camptothecin was determined by fluorescence measurement using the above-described calibration.

Where [6] appears, read: CPT-11 in human serum Without Gel, exposure 10 min.
Setting [7] is: CPT-11 loaded in Pluronic-PAA-EGDMA gel (F127-PAA) in human serum, exposure 1 h.

This is an account of results in US20040258754A1, “Compositions for oral administration of camptothecin and its analogs” (priority 2003, published 2004).

SMILES strings stand for the structures. Converted amounts (≈) assume the structure as drawn. Where two headings read alike, the source gives them in different places.

For `CCc1c2c(nc3ccc(O)cc13)-c1cc(C(O)(CC)C(=O)O)c(CO)c(=O)n1C2` (centres unmarked) [SN28-c], the “Relative Peak Area” value in data set [1] (setting [6]) was 1.18; in data set [1] (setting [7]), “not detected”.

As usually defined, the Log P is the decadic logarithm of the partition coefficient of the neutral form, usually between octanol and water. Turning to `C[C@]12CC[C@@H]3c4ccc(O)cc4CC[C@H]3[C@@H]1CC[C@@H]2O` [β-Estradiol], the “Log P” value in data set [2] is listed as 3.86.

Take `CCc1c2c(nc3ccc(OC(=O)N4CCC(NCCCCC(=O)O)CC4)cc13)-c1cc3c(c(=O)n1C2)COC(=O)[C@]3(O)CC` [APC-L]: the “Relative Peak Area” value is 0.778 in data set [1] (setting [6]) and “not detected” in data set [1] (setting [7]).

With `CC(=O)O[C@H]1C(=O)[C@@]2(C)[C@H]([C@H](OC(=O)c3ccccc3)[C@]3(O)C[C@H](OC(=O)[C@H](O)[C@@H](NC(=O)c4ccccc4)c4ccccc4)C(C)=C1C3(C)C)[C@]1(OC(C)=O)CO[C@@H]1C[C@@H]2O` [Taxol], the “Uptake ± S.D.” value in data set [3] (F127-based gel, 20° C.) is given as 2.27 ± 0.90 (20° C.) μmol/g gel; in data set [3] (F127-based gel, 37° C.), 6.97 ± 0.87 (37° C.) μmol/g gel; in data set [3] (L92-based gel, 20° C.) it was 3.65 ± 0.43 (20° C.) μmol/g gel; in data set [3] (L92-based gel, 37° C.), 7.25 ± 0.74 (37° C.) μmol/g gel.

Regarding `CCc1c2c(nc3ccc(O)cc13)-c1cc3c(c(=O)n1C2)COC(=O)[C@]3(O)CC` [SN28-L], the “Relative Peak Area” value in data set [1] (setting [6]) is on record as 1.30; in data set [1] (setting [7]), “not detected”.

Turning to `CCc1c2c(nc3ccc(OC(=O)N4CCC(N5CCCCC5)CC4)cc13)-c1cc3c(c(=O)n1C2)COC(=O)[C@]3(O)CC` [CPT-11, irinotecan], the “metabolism in human serum without encapsulation into gels” value in data set [1] (male, human, 15 min, 0.013 mg/mL) is “a substantial portion of CPT-11 was metabolised”.

As to `CC[C@@]1(O)C(=O)OCc2c1cc1n(c2=O)Cc2cc3ccccc3nc2-1` [Camptothecin], the “higher affinity of HSA for the carboxylate form than for the alpha-hydroxy lactone form” value in data set [4] is recorded as 150 fold. In addition, the “Uptake ± S.D.” value is reported as 13.4 ± 1.54 (20° C.) μmol/g gel in data set [3] (F127-based gel, 20° C.); 16.3 ± 1.86 (37° C.) μmol/g gel in data set [3] (F127-based gel, 37° C.); 16.2 ± 1.87 (20° C.) μmol/g gel in data set [3] (L92-based gel, 20° C.); 19.5 ± 2.33 (37° C.) μmol/g gel in data set [3] (L92-based gel, 37° C.). For the same molecule, the solubility at 1 h worked out at 3.1 ± 1.5 µg/mL (≈ 8.9 µM) in data set [5] (1% Pluronic P85 in PBS, P85 1% in PBS pH 7.2, room temperature) and 4.9 ± 1.5 µg/mL (≈ 14.1 µM) in data set [5] (3% Pluronic P85 in PBS, P85 3% in PBS pH 7.2, room temperature). Further, the “Log P” value in data set [2] is 0.87.
